The results in this text go back to US9783511B2, “Carbamate benzoxazine propionic acids and acid derivatives for modulation of RORgamma activity and the treatment of disease” (Merck Sharp & Dohme Corp., priority 2013, dated 2017).

The experiment has as its target human RORgammaT-Ligand Binding Domain (LBD) (Homo sapiens (Human), UniProt P51449). Kind of experiment: RORγ-Ligand Binding Domain TR-FRET Assay (co-activator peptide SRC1_2 recruitment). The conditions noted are these: HIS-tagged RORγ-LBD 3 nM, biotinylated SRC1 LXXLL peptide 100 nM, incubated overnight at 4° C., 665 nm/615 nm ratio. The format is biochemical. In a few lines:
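E. coli-expressed, Ni2+-purified HIS-tagged human RORγ-LBD at 3 nM final in 50 mM Tris pH 7.0, 50 mM KCl, 1 mM EDTA, 0.1 mM DTT, 100 μg/mL delipidated BSA. TR-FRET read-out of SRC1_2 co-activator peptide recruitment; compounds dispensed acoustically.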

Usually IC50 stands for the concentration needed to halve the response being measured.

human RORgammaT-Ligand Binding Domain (LBD), sequence (P51449 269-508): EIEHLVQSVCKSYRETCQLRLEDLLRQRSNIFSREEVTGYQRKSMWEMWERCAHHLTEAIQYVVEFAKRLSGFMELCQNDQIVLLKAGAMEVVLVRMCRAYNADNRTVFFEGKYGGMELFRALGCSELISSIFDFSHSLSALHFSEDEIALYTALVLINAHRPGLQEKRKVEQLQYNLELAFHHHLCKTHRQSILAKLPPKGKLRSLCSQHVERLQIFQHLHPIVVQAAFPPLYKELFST

Take `Cc1cc(S(=O)(=O)N2C[C@H](CCC(=O)O)Oc3ccc(NC(=O)OC(C)(C)C(F)(F)F)cc32)c(F)cc1F` [Example 6AW, (S)-3-(4-((2,4-difluoro-5-methylphenyl)sulfonyl)-6-((((1,1,1-trifluoro-2-methylpropan-2-yl)oxy)carbonyl)amino)-3,4-dihydro-2H-benzo[b][1,4]oxazin-2-yl)propanoic acid]: the IC50 came out at 7.71 nM.

For `Cc1nn(C(F)F)cc1S(=O)(=O)N1C[C@H](CCC(=O)O)Oc2ccc(NC(=O)OC(C)(C)C(F)(F)F)cc21` [Example 6AX, (S)-4-((2-(2-carboxyethyl)-6-((((1,1,1-trifluoro-2-methylpropan-2-yl)oxy)carbonyl)amino)-2H-benzo[b][1,4]oxazin-4(3H)-yl)sulfonyl)-1-(difluoromethyl)-3-methyl-1H-pyrazole], the IC50 came to 9.92 nM.

`Cc1cc(S(=O)(=O)N2C[C@H](CCC(=O)O)Oc3ccc(NC(=O)OC(C)(C)C(F)(F)F)cc32)c(Cl)cc1F` [Example 6BA, (S)-3-(4-((2-chloro-4-fluoro-5-methylphenyl)sulfonyl)-6-((((1,1,1-trifluoro-2-methylpropan-2-yl)oxy)carbonyl)amino)-3,4-dihydro-2H-benzo[b][1,4]oxazin-2-yl)propanoic acid]: the IC50 amounted to 7.31 nM.

For the compound `CCn1cc(S(=O)(=O)N2C[C@H](CCC(=O)O)Oc3ccc(NC(=O)OC(C)(C)C(F)(F)F)cc32)c(OC(F)F)n1` [Example 6BC, (S)-3-(4-((3-(difluoromethoxy)-1-ethyl-1H-pyrazol-4-yl)sulfonyl)-6-((((1,1,1-trifluoro-2-methylpropan-2-yl)oxy)carbonyl)amino)-3,4-dihydro-2H-benzo[b][1,4]oxazin-2-yl)propanoic acid], the IC50 worked out at 11.9 nM.

As for `CC(C)(OC(=O)Nc1ccc2c(c1)N(S(=O)(=O)c1cccc(S(F)(F)(F)(F)F)c1)C[C@H](CCC(=O)O)O2)C(F)(F)F` [Example 6BD, 3-[(2S)-4-{[3-(pentafluoro-lambda~6~- sulfanyl)phenyl]sulfonyl}-6-{[(2,2,2-trifluoro-1,1-dimethylethoxy)carbonyl]amino}-3,4-dihydro-2H-1,4-benzoxazin-2-yl]propanoic acid], the 50% inhibitory concentration (IC50) was 14.8 nM.

Take `CC(C)(OC(=O)Nc1ccc2c(c1)N(S(=O)(=O)c1cncc(Br)c1)C[C@H](CCC(=O)O)O2)C(F)(F)F` [Example 6BU, 3-[(2S)-4-[(5-bromopyridin-3-yl)sulfonyl]-6-{[(2,2,2-trifluoro-1,1-dimethylethoxy)carbonyl]amino}-3,4-dihydro-2H-1,4-benzoxazin-2-yl]propanoic acid]: the IC50 came out at 10.9 nM.

Turning to `CC(C)(OC(=O)Nc1ccc2c(c1)N(S(=O)(=O)c1cncc(C3CC3)c1)C[C@H](CCC(=O)O)O2)C(F)(F)F` [Example 6BV, 3-[(2S)-4-[(5-cyclopropylpyridin-3-yl)sulfonyl]-6-{[(2,2,2-trifluoro-1,1-dimethylethoxy)carbonyl]amino}-3,4-dihydro-2H-1,4-benzoxazin-2-yl]propanoic acid], the IC50 was determined as 8.84 nM.

As for `Cc1cncc(S(=O)(=O)N2C[C@H](CCC(=O)O)Oc3ccc(NC(=O)OC(C)(C)C(F)(F)F)cc32)c1` [Example 6BX, 3-[(2S)-4-[(5-methylpyridin-3-yl)sulfonyl]-6-{[(2,2,2-trifluoro-1,1-dimethylethoxy)carbonyl]amino}-3,4-dihydro-2H-1,4-benzoxazin-2-yl]propanoic acid], the IC50 came to 32.4 nM.

On to `COc1cncc(S(=O)(=O)N2C[C@H](CCC(=O)O)Oc3ccc(NC(=O)OC(C)(C)C(F)(F)F)cc32)c1` [Example 6BY, 3-[(2S)-4-[(5-methoxypyridin-3-yl)sulfonyl]-6-{[(2,2,2-trifluoro-1,1-dimethylethoxy)carbonyl]amino}-3,4-dihydro-2H-1,4-benzoxazin-2-yl]propanoic acid], for which the IC50 came out at 27.1 nM.

On to `CCOc1sc(CC)nc1S(=O)(=O)N1C[C@H](CCC(=O)O)Oc2ccc(NC(=O)OC(C)(C)C(F)(F)F)cc21` [Example 6CC, 3-[(2S)-4-[(5-ethoxy-2-ethyl-1,3-thiazol-4-yl)sulfonyl]-6-{[(2,2,2-trifluoro-1,1-dimethylethoxy)carbonyl]amino}-3,4-dihydro-2H-1,4-benzoxazin-2-yl]propanoic acid], for which the half-maximal inhibitory concentration (IC50) was 12.4 nM.

`CCOc1sc(C2CC2)nc1S(=O)(=O)N1C[C@H](CCC(=O)O)Oc2ccc(NC(=O)OC(C)(C)C(F)(F)F)cc21` [Example 6CD, 3-[(2S)-4-[(2-cyclopropyl-5-ethoxy-1,3-thiazol-4-yl)sulfonyl]-6-{[(2,2,2-trifluoro-1,1-dimethylethoxy)carbonyl]amino}-3,4-dihydro-2H-1,4-benzoxazin-2-yl]propanoic acid]: the half-inhibitory concentration (IC50) stood at 14.4 nM.

As to `CCOc1sc(C(F)(F)F)nc1S(=O)(=O)N1C[C@H](CCC(=O)O)Oc2ccc(NC(=O)OC(C)(C)C(F)(F)F)cc21` [Example 6CE, 3-[(2S)-4-{[5-ethoxy-2-(trifluoromethyl)-1,3-thiazol-4-yl]sulfonyl}-6-{[(2,2,2-trifluoro-1,1-dimethylethoxy)carbonyl]amino}-3,4-dihydro-2H-1,4-benzoxazin-2-yl]propanoic acid], the IC50 was 67.5 nM.

For `CCc1nc(S(=O)(=O)N2C[C@H](CCC(=O)O)Oc3ccc(NC(=O)OC(C)(C)C(F)(F)F)cc32)c(OC(C)C)s1` [Example 6CF, 3-[(2S)-4-{[2-ethyl-5-(1-methylethoxy)-1,3-thiazol-4-yl]sulfonyl}-6-{[(2,2,2-trifluoro-1,1-dimethylethoxy)carbonyl]amino}-3,4-dihydro-2H-1,4-benzoxazin-2-yl]propanoic acid], the IC50 is 20 nM.

As to `CCc1nc(S(=O)(=O)N2C[C@H](CCC(=O)O)Oc3ccc(NC(=O)OC(C)(C)C(F)(F)F)cc32)c(OCC(F)(F)F)s1` [Example 6CG, 3-[(2S)-4-{[2-ethyl-5-(2,2,2-trifluoroethoxy)-1,3-thiazol-4-yl]sulfonyl}-6-{[(2,2,2-trifluoro-1,1-dimethylethoxy)carbonyl]amino}-3,4-dihydro-2H-1,4-benzoxazin-2-yl]propanoic acid], the IC50 stood at 22.9 nM.

With `CC(C)(OC(=O)Nc1ccc2c(c1)N(S(=O)(=O)c1cc(C3CC3)ccc1F)C[C@H](CCC(=O)O)O2)C(F)(F)F` [Example 6CH, 3-[(2S)-4-[(5-cyclopropyl-2-fluorophenyl)sulfonyl]-6-{[(2,2,2-trifluoro-1,1-dimethylethoxy)carbonyl]amino}-3,4-dihydro-2H-1,4-benzoxazin-2-yl]propanoic acid], the IC50 was 18.1 nM.

As for `CC(C)(OC(=O)Nc1ccc2c(c1)N(S(=O)(=O)c1cccc(C#N)c1)C[C@H](CCC(=O)O)O2)C(F)(F)F` [Example 6L, (S)-3-(4-((3-cyanophenyl)sulfonyl)-6-((((1,1,1-trifluoro-2-methylpropan-2-yl)oxy)carbonyl)amino)-3,4-dihydro-2H-benzo[b][1,4]oxazin-2-yl)propanoic acid], the IC50 stood at 11 nM.

In the case of `CC(C)(OC(=O)Nc1ccc2c(c1)N(S(=O)(=O)c1ccc(F)c(F)c1)C[C@H](CCC(=O)O)O2)C(F)(F)F` [Example 6N, (S)-3-(4-((3,4-difluorophenyl)sulfonyl)-6-((((1,1,1-trifluoro-2-methylpropan-2-yl)oxy)carbonyl)amino)-3,4-dihydro-2H-benzo[b][1,4]oxazin-2-yl)propanoic acid], the IC50 came to 14 nM.

For `CC(C)(OC(=O)Nc1ccc2c(c1)N(S(=O)(=O)c1cccc(OC(F)(F)F)c1)C[C@H](CCC(=O)O)O2)C(F)(F)F` [Example 6S, (S)-3-(6-((((1,1,1-trifluoro-2-methylpropan-2-yl)oxy)carbonyl)amino)-4-((3-(trifluoromethoxy)phenyl)sulfonyl)-3,4-dihydro-2H-benzo[b][1,4]oxazin-2-yl)propanoic acid], the half-maximal inhibitory concentration (IC50) was 6 nM.

On to `CC(C)(OC(=O)Nc1ccc2c(c1)N(S(=O)(=O)c1cccc(OC(F)F)c1)C[C@H](CCC(=O)O)O2)C(F)(F)F` [Example 6T, (S)-3-(4-((3-(difluoromethoxy)phenyl)sulfonyl)-6-((((1,1,1-trifluoro-2-methylpropan-2-yl)oxy)carbonyl)amino)-3,4-dihydro-2H-benzo[b][1,4]oxazin-2-yl)propanoic acid], for which the IC50 was 4 nM.

In the case of `CC(C)(OC(=O)Nc1ccc2c(c1)N(S(=O)(=O)c1cccc(S(C)(=O)=O)c1)C[C@H](CCC(=O)O)O2)C(F)(F)F` [Example 6X, (S)-3-(4-((3-(methylsulfonyl)phenyl)sulfonyl)-6-((((1,1,1-trifluoro-2-methylpropan-2-yl)oxy)carbonyl)amino)-3,4-dihydro-2H-benzo[b][1,4]oxazin-2-yl)propanoic acid], the IC50 stood at 15 nM.

In the case of `CC(C)(C[C@H]1CN(S(=O)(=O)c2cncc(C#N)c2)c2cc(NC(=O)OC(C)(C)C(F)(F)F)ccc2O1)C(=O)O` [Example 12M, 3-[(2S)-4-[(5-cyanopyridin-3-yl)sulfonyl]-6-{[(2,2,2-trifluoro-1,1-dimethylethoxy)carbonyl]ami-no}-3,4-dihydro-2H-1,4-benzoxazin-2-yl]-2,2-dimethylpropanoic acid], the IC50 was found to be 61.8 nM.

As to `CCOc1sc(CC)nc1S(=O)(=O)N1C[C@H](CC(C)(C)C(=O)O)Oc2ccc(NC(=O)OC(C)(C)C(F)(F)F)cc21` [Example 12P, 3-[(2S)-4-[(5-ethoxy-2-ethyl-1,3-thiazol-4-yl)sulfonyl]-6-{[(2,2,2-trifluoro-1,1-dimethylethoxy)carbonyl]ami-no}-3,4-dihydro-2H-1,4-benzoxazin-2-yl]-2,2-dimethylpropanoic acid], the IC50 is 9.22 nM.

On to `CCc1nc(S(=O)(=O)N2C[C@H](CC(C)(C)C(=O)O)Oc3ccc(NC(=O)OC(C)(C)C(F)(F)F)cc32)c(OCC(F)(F)F)s1` [Example 12R, 3-[(2S)-4-{[2-ethyl-5-(2,2,2-trifluoroethoxy)-1,3-thiazol-4-yl]sulfonyl}-6-{[(2,2,2-trifluoro-1,1-dimethylethoxy)carbonyl]ami-no}-3,4-dihydro-2H-1,4-benzoxazin-2-yl]-2,2-dimethylpropanoic acid], for which the IC50 is 12.6 nM.
